The values that follow come from patent publication US6953855B2 (priority 1998, dated 2005).

The assay has as its target T1, muscle-type receptors (α1β1γδ subtype in human TE671/RD clonal cells) (Homo sapiens, UniProt P02708+P07510+Q07001).
T1 construct: endogenous in cells; host or cells: human TE671/RD rhabdomyosarcoma cells
Briefly: cell-based. Conditions: read-out: agonist activity, % of nicotine's response (human muscle).

T1 sequence (P02708 21-457): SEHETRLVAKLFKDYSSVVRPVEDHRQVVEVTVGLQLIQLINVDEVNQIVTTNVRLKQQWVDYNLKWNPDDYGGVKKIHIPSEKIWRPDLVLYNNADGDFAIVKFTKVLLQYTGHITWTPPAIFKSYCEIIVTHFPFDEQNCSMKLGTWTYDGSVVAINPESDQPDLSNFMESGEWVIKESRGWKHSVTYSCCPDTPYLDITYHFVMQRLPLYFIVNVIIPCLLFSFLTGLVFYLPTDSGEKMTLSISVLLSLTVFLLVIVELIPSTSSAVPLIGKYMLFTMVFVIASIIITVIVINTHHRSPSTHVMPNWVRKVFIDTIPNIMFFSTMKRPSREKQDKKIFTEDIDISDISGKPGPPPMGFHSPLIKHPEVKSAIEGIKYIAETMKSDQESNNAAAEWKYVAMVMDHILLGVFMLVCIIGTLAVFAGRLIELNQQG
T1 sequence (P11230 24-501 partner): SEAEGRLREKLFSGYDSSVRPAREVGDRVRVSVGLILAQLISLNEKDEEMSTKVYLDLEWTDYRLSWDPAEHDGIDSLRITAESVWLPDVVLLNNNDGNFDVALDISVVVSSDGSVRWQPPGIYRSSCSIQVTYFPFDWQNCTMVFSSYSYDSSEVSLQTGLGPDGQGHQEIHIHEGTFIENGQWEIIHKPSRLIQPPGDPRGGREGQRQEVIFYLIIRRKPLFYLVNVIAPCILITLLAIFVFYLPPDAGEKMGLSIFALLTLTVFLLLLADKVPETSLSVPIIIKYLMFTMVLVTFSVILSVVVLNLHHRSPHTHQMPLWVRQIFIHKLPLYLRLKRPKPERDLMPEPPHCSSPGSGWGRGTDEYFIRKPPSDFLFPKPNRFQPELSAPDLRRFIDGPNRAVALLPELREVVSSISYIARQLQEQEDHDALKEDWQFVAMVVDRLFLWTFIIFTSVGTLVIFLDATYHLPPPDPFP
T1 sequence (P07510 23-517): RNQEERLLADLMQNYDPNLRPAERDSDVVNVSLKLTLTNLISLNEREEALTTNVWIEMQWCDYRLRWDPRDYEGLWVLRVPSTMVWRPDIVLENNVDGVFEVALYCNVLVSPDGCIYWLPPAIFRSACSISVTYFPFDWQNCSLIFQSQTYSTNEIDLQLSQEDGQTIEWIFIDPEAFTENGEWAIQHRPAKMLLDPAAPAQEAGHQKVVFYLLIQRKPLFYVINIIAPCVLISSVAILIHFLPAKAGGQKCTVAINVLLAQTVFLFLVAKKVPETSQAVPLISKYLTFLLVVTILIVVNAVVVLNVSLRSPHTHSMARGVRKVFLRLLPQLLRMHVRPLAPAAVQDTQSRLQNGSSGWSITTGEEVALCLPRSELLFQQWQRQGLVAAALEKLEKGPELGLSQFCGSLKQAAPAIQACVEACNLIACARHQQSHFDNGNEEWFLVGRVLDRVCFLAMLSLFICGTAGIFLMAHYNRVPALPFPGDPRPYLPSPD
T1 sequence (Q07001 22-517): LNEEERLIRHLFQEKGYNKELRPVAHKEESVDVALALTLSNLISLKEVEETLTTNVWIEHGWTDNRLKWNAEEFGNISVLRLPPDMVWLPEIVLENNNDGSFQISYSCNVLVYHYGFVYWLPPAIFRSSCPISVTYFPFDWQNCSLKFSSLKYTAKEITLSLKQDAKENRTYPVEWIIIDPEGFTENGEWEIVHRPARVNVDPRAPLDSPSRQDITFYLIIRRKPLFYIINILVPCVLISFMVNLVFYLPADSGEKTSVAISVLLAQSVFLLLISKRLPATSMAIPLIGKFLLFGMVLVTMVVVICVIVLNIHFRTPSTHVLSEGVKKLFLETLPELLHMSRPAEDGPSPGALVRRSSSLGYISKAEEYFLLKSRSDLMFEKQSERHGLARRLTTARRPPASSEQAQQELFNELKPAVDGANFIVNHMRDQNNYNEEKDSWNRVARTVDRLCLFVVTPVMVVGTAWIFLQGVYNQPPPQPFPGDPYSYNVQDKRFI

`O=C(NC1C2CCN(CC2)C1Cc1cccnc1)c1cccc(Br)c1` (centres unmarked) [Compound 15, N-(2-((3-pyridinyl)methyl)-1-azabicyclo[2.2.2]oct-3-yl)-3-bromobenzamide]: the activation at 100 µM lay in the range of 1 to 12%. Then `CSc1ccc(NC(=O)OC2C3CCN(CC3)C2Cc2cccnc2)cc1` (centres unmarked) [Compound 5, 2-((3-pyridinyl)methyl)-1-azabicyclo[2.2.2]oct-3-yl N-(4-methylthiophenyl)carbamate], with 1 to 12%. Then `O=C(C=Cc1ccccc1F)NC1C2CCN(CC2)C1Cc1cccnc1` (centres unmarked) [Compound 33, N-(2-((3-pyridinyl)methyl)-1-azabicyclo[2.2.2]oct-3-yl)-3-(2-fluorophenyl)prop-2-enamide], with 1 to 12%; and `O=C(C=Cc1ccc(Br)cc1)NC1C2CCN(CC2)C1Cc1cccnc1` (centres unmarked) [Compound 30, N-(2-((3-pyridinyl)methyl)-1-azabicyclo[2.2.2]oct-3-yl)-3-(4-bromophenyl)prop-2-enamide], with 1 to 12%; and `O=C(Nc1cccc(F)c1)NC1C2CCN(CC2)C1Cc1cccnc1` (centres unmarked) [Compound 19, N-(3-fluorophenyl)-N′-(2-((3-pyridinyl)methyl)-1-azabicyclo[2.2.2]oct-3-yl)urea], with 1 to 12%. For the compound `O=C(Nc1ccc(Br)cc1)OC1C2CCN(CC2)C1Cc1cccnc1` (centres unmarked) [Compound 1, 2-((3-pyridinyl)methyl)-1-azabicyclo[2.2.2]oct-3-yl N-(4-bromophenyl)carbamate], the activation at 100 µM lay in the range of 1 to 12%. Then `CN(C(=O)Nc1ccccc1)C1C2CCN(CC2)C1Cc1cccnc1` (centres unmarked) [Compound 26, N-phenyl-N′-methyl-N′-(2-((3-pyridinyl)methyl)-1-azabicyclo[2.2.2]oct-3-yl)urea], with 1 to 12%; and `COc1cccc(C=CC(=O)NC2C3CCN(CC3)C2Cc2cccnc2)c1` (centres unmarked) [Compound 32, N-(2-((3-pyridinyl)methyl)-1-azabicyclo[2.2.2]oct-3-yl)-3-(3-methoxyphenyl)prop-2-enamide], with 1 to 12%; and `O=C(C=Cc1ccc(Cl)cc1)NC1C2CCN(CC2)C1Cc1cccnc1` (centres unmarked) [Compound 29, N-(2-((3-pyridinyl)methyl)-1-azabicyclo[2.2.2]oct-3-yl)-3-(4-chlorophenyl)prop-2-enamide], with 1 to 12%.

Turning to `O=C(Nc1ccc(Oc2ccccc2)cc1)NC1C2CCN(CC2)C1Cc1cccnc1` (centres unmarked) [Compound 17, N-(4-phenoxyphenyl)-N′-(2-((3-pyridinyl)methyl)-1-azabicyclo[2.2.2]oct-3-yl)urea], the activation at 100 µM is 1 to 12%. Then `O=C(NC1C2CCN(CC2)C1Cc1cccnc1)c1ccc(F)cc1` (centres unmarked) [Compound 8, N-(2-((3-pyridinyl)methyl)-1-azabicyclo[2.2.2]oct-3-yl)-4-fluorobenzamide], with 1 to 12%; and `O=C(Nc1ccc(Br)cc1)NC1C2CCN(CC2)C1Cc1cccnc1` (centres unmarked) [Compound 20, N-(4-bromophenyl)-N′-(2-((3-pyridinyl)methyl)-1-azabicyclo[2.2.2]oct-3-yl)urea], with 1 to 12%; and `O=C(NC1C2CCN(CC2)C1Cc1cccnc1)c1cc2ccccc2o1` (centres unmarked) [Compound 9, N-(2-((3-pyridinyl)methyl)-1-azabicyclo[2.2.2]oct-3-yl)benzofuran-2-carboxamide], with 1 to 12%.

In the case of `O=C(Nc1ccc(F)cc1)OC1C2CCN(CC2)C1Cc1cccnc1` (centres unmarked) [Compound 3, 2-((3-pyridinyl)methyl)-1-azabicyclo[2.2.2]oct-3-yl N-(4-fluorophenyl)carbamate], the activation at 100 µM lay in the range of 1 to 12%.

As to `COc1ccccc1NC(=O)NC1C2CCN(CC2)C1Cc1cccnc1` (centres unmarked) [Compound 21, N-(2-methoxyphenyl)-N′-(2-((3-pyridinyl)methyl)-1-azabicyclo[2.2.2]oct-3-yl)urea], the activation at 100 µM is 1 to 12%. Under `COc1cccc(C(=O)NC2C3CCN(CC3)C2Cc2cccnc2)c1` (centres unmarked) [Compound 14, N-(2-((3-pyridinyl)methyl)-1-azabicyclo[2.2.2]oct-3-yl)-3-methoxybenzamide] stands 1 to 12%. As to `CN(C(=O)Nc1ccc(Br)cc1)C1C2CCN(CC2)C1Cc1cccnc1` (centres unmarked) [Compound 27, N-(4-bromophenyl)-N′-methyl-N′-(2-((3-pyridinyl)methyl)-1-azabicyclo [2.2.2]oct-3-yl)urea], the activation at 100 µM lay in the range of 1 to 12%. Then `O=C(NC1C2CCN(CC2)C1Cc1cccnc1)c1ccccc1` (centres unmarked) [Compound 13, N-(2-((3-pyridinyl)methyl)-1-azabicyclo[2.2.2]oct-3-yl)benzamide], with 1 to 12%.

As to `O=C(C=Cc1ccccc1)NC1C2CCN(CC2)C1Cc1cccnc1` (centres unmarked) [Compound 28, N-(2-((3-pyridinyl)methyl)-1-azabicyclo[2.2.2]oct-3-yl)3-phenylprop-2-enamide], the activation at 100 µM was 1 to 12%. Then `O=C(NC1C2CCN(CC2)C1Cc1cccnc1)c1ccc(Br)cc1` (centres unmarked) [Compound 10, N-(2-((3-pyridinyl)methyl)-1-azabicyclo[2.2.2]oct-3-yl)-4-bromobenzamide], with 1 to 12%; and `COc1ccc(NC(=O)NC2C3CCN(CC3)C2Cc2cccnc2)c(OC)c1` (centres unmarked) [Compound 22, N-(2,4-dimethoxyphenyl)-N′-(2-((3-pyridinyl)methyl)-1-azabicyclo[2.2.2]oct-3-yl)urea], with 1 to 12%; and `O=C(Nc1ccccc1)NC1C2CCN(CC2)C1Cc1cccnc1` (centres unmarked) [Compound 16, N-phenyl-N′-(2-((3-pyridinyl)methyl)-1-azabicyclo[2.2.2]oct-3-yl)urea], with 1 to 12%. Under `CN(C)c1ccc(NC(=O)NC2C3CCN(CC3)C2Cc2cccnc2)cc1` (centres unmarked) [Compound 25, N-(4-dimethylaminophenyl)-N′-(2-((3-pyridinyl)methyl)-1-azabicyclo[2.2.2]oct-3-yl)urea] stands 1 to 12%. Under `O=C(C=Cc1cccc(O)c1)NC1C2CCN(CC2)C1Cc1cccnc1` (centres unmarked) [Compound 31, N-(2-((3-pyridinyl)methyl)-1-azabicyclo[2.2.2]oct-3-yl)-3-(3-hydroxyphenyl)prop-2-enamide] stands 1 to 12%; under `O=C(C=Cc1ccccc1O)NC1C2CCN(CC2)C1Cc1cccnc1` (centres unmarked) [Compound 34, N-(2-((3-pyridinyl)methyl)-1-azabicyclo[2.2.2]oct-3-yl)-3-(2-hydroxyphenyl)prop-2-enamide], 1 to 12%; under `COc1ccc(NC(=O)OC2C3CCN(CC3)C2Cc2cccnc2)cc1` (centres unmarked) [Compound 4, 2-((3-pyridinyl)methyl)-1-azabicyclo[2.2.2]oct-3-yl N-(4-methoxyphenyl)carbamate], 1 to 12%. Take `COc1ccc(NC(=O)NC2C3CCN(CC3)C2Cc2cccnc2)cc1` (centres unmarked) [Compound 24, N-(4-methoxyphenyl)-N′-(2-((3-pyridinyl)methyl)-1-azabicyclo[2.2.2]oct-3-yl)urea]: the activation at 100 µM lay in the range of 1 to 12%. Under `O=C(Nc1ccc(Cl)c(Cl)c1)NC1C2CCN(CC2)C1Cc1cccnc1` (centres unmarked) [Compound 23, N-(3,4-dichlorophenyl)-N′-(2-((3-pyridinyl)methyl)-1-azabicyclo[2.2.2]oct-3-yl)urea] stands 1 to 12%; under `CSc1ccc(NC(=O)NC2C3CCN(CC3)C2Cc2cccnc2)cc1` (centres unmarked) [Compound 18, N-(4-methylthiophenyl)-N′-(2-((3-pyridinyl)methyl)-1-azabicyclo[2.2.2]oct-3-yl)urea], 1 to 12%.
